Test results from patent US20120270770A1, “Anti-angiogenic peptides and their uses” (priority 2010, published 2012).
Entries after “also recorded” stand apart in the source; their conditions may differ. Where a SMILES comes first, the peptide text is derived from it.

Columns and labels:
[1] = Fate of radiolabeled (3H/14C) peptide after injection into the animal; type: in vivo; conditions: no matter the route of administration
Source text: Lytic peptides are active in eliminating tumor-derived cells by causing direct osmotic lysis. […] Indeed, that is the case. […] However, in some cases there was little activity. To determine what might be happening in vivo, radiolabeled D2A21 was chemically synthesized with all alanines labeled with either ^3H or ^14C. Since the labeling pattern was asymmetric, it enabled us to follow the physical state of the peptide once it had been injected into the animal by comparing the unique ratios of ^3H/^14C that would result if the peptide experienced proteolysis. […] The possibility emerged that the systemic in vivo anti-cancer activity was retained within specific fragments of D2A21.

[2] = system: Stage IV pancreatic cancer; conditions: cited from earlier work
[3] = system: angiogenesis in Matrigel deposits imbibed with fibroblast growth factor 1 (FGF1); experiment: Matrigel deposit angiogenesis assay (FGF1-loaded Matrigel implanted in mice, histology score); type: in vivo; set-up: key to top level score reached in Matrigel deposits: ++++: This system ranks each sample using a 0 to 4 plus (+) scale; B in FIG. 13 would yield a score of +++; no + sign would yield a value of 0, as in A in FIG. 13; conditions: for angiogenic activity score, Sample 1 / angiogenic activity score, Sample 2 / angiogenic activity score, Sample 3 / angiogenic activity score, Sample 4 / angiogenic activity score, Sample 5 / angiogenic activity score, Sample 6 / angiogenic activity score, Sample 7 / angiogenic activity score, Sample 8 / top level score reached in Matrigel deposits: 0 to 4 plus scale; for angiogenic activity score, Sample 1 / angiogenic activity score, Sample 2 / angiogenic activity score, Sample 3 / angiogenic activity score, Sample 4 / angiogenic activity score, Sample 5 / angiogenic activity score, Sample 6 / angiogenic activity score, Sample 7 / angiogenic activity score, Sample 8 / angiogenic / anti-angiogenic activity in Matrigel deposit (in words): 20 μg peptide IP daily; for angiogenic activity score, Sample 1 / angiogenic activity score, Sample 2 / angiogenic activity score, Sample 3 / angiogenic activity score, Sample 4 / angiogenic activity score, Sample 5 / angiogenic activity score, Sample 6 / angiogenic activity score, Sample 7 / angiogenic activity score, Sample 8: Day 14 histology; for % Diff.: difference of mean score from control (2.50); for angiogenic / anti-angiogenic activity in Matrigel deposit (in words): histology, Day 14; for angiogenic activity score, Mean: mean of samples, control mean 2.50
Source text: Matrigel deposits were surgically implanted on both sides of 4 mice per treatment yielding a possible 8 samples per treatment. Matrigel is a polymeric substance that appears to be relatively inert in animals and it can serve as a matrix that allows experimentation in vivo on many different difficult-to-study-processes. Prior to implantation, the Matrigel was allowed to imbibe fibroblast growth factor 1 (FGF1). This protein is a powerful inducer of angiogenesis and its presence guarantees that sufficient activity will be observed within the allotted time period of the experiment. Therefore, any inhibition of angiogenesis is likely to be a real phenomenon as the experiment has been set to heavily favor the angiogenic process. Angiogenesis occurs by day 14 and beginning Day 1 (Day 0=day of implantation), mice were injected IP daily with 20 μg of peptide in 100 μl of normal saline. The animals were sacrificed on Day 14, and each Matrigel deposit divided longitudinally and fixed in 10% buffered formalin. One of the halves of each Matrigel deposit was then sectioned. Read-out for this experiment was via histology, with semi-quantitative/qualitative counting of migration of cells and their subsequent assembly of lumenal structures within the Matrigel. This method allows us to observe the full physiologic spectrum of effects, and was useful in delineating trends. […] In FIG. 13, A represents what a section of a Matrigel gel deposit looks like under the microscope soon after surgical implantation. The sample in B is derived from the control at the conclusion of the experiment. Intense activity is present with numerous cells attaching to the surface of the Matrigel. Cells begin to penetrate the deposit and organize into discrete structures that coalesce to form the beginning of tubes twisting and branching in many directions. These venules eventually connect with the system carrying blood and it is possible to see red cells and lymphocytes within them. This process is called “arborization”, derived from the fact that the angiogenic process most closely resembles the growth of roots and branches of trees. All but two of the peptide treatments looked, more or less, like B (all the peptides of Table 1 were tested). In C, a typical sample from the peptide C-1 treatment is shown. […] Consequently, there were far fewer cells and cellular structures inside of the Matrigel. […] There were large regions of Matrigel that had no visibly associated structures and few single cells, including on the periphery, while other regions had some limited activity.
This system ranks each sample using a 0 to 4 plus (+) scale. Thus, B in FIG. 13 would yield a score of +++ while no + sign would yield a value of 0, as in A in FIG. 13. In Table 3 the data is modified to a numerical form and plotted averages are shown.

HMEC-1 monolayer = experiment: Endothelial cell migration assay (scraped HMEC-1 monolayer); type: cell-based; conditions: NT = 1.00
Description: The results in Table 6 are gathered from an in vitro experiment and show the ability of JC 15 10N to inhibit the migration of endothelial cells (the “minus” values). This migration is a requisite step in the formation of new blood vessels. […] The shading indicates the presence of VEGF ([…] endothelial growth factor). This growth factor causes endothelial cell migration and consequent assembly of blood vessels.
Cell migration was performed as previously described. In brief, a HMEC-1 monolayer was scraped making a 1-mm wide denuded area then stimulated with VEGF and 10N and the area unoccupied by the migrating cells was determined using MetaMorph and expressed as a percentage of control.

time to hydrolysis of labeled peptide to fragments of various lengths [1]	Molecule	longest survival on treatment ([2]; patients with Stage IV pancreatic cancer on gemcitabine treatment) [months]	Median survival time ([2]; patients with Stage IV pancreatic cancer treated with gemcitabine (untreated 4.5 months)) [months]	angiogenic activity score, Sample 1 [3]	angiogenic activity score, Sample 2 [3]	angiogenic activity score, Sample 3 [3]	angiogenic activity score, Sample 4 [3]	angiogenic activity score, Sample 5 [3]	angiogenic activity score, Sample 6 [3]	angiogenic activity score, Sample 7 [3]	angiogenic activity score, Sample 8 [3]	% Diff. [3] [%]	angiogenic / anti-angiogenic activity in Matrigel deposit (in words) [3]	angiogenic activity score, Mean [3]	top level score reached in Matrigel deposits [3]	Endothelial Cell Migration (HMEC-1 monolayer; VEGF 75 ng/ml, second series)	Endothelial Cell Migration (HMEC-1 monolayer; VEGF 150 ng/ml, first series)	Endothelial Cell Migration (HMEC-1 monolayer; VEGF 150 ng/ml, third series)
within minutes	C[C@H](NC(=O)[C@H](Cc1ccccc1)NC(=O)[C@H](C)NC(=O)[C@H](Cc1ccccc1)NC(=O)[C@H](CCCCN)NC(=O)[C@H](C)NC(=O)[C@H](Cc1ccccc1)NC(=O)[C@H](CCCCN)NC(=O)[C@H](CCCCN)NC(=O)[C@H](C)NC(=O)[C@H](Cc1ccccc1)NC(=O)[C@H](CCCCN)NC(=O)[C@H](CCCCN)NC(=O)[C@H](Cc1ccccc1)NC(=O)[C@H](CCCCN)NC(=O)[C@H](CCCCN)NC(=O)[C@H](C)NC(=O)[C@H](Cc1ccccc1)NC(=O)[C@H](CCCCN)NC(=O)[C@H](CCCCN)NC(=O)[C@H](C)NC(=O)[C@@H](N)Cc1ccccc1)C(=O)N[C@@H](Cc1ccccc1)C(=O)O [JC15] (H-FAKKFAKKFKKFAKKFAKFAFAF-OH; N-terminus and C-terminus assumed)	–	–	–	–	–	–	–	–	–	–	–	–	–	–	–	–	–
–	Nc1ccn([C@@H]2O[C@H](CO)[C@@H](O)C2(F)F)c(=O)n1 [gemcitabine]	19	4.8	–	–	–	–	–	–	–	–	–	–	–	–	–	–	–
–	FAKKFAKFAF [JC15-10C]	–	–	2	3	2	3	2	3	2	3	0.00	inactive	2.50	–	–	–	–
–	FAKKFAKKFKKF [JC15-12N]	–	–	4	2	3	2	3	2	3	–	8.57	levels of activity higher than the control; also recorded: cannot exert an anti-angiogenic effect	2.71	++++	–	–	–
–	FAKKFAKKFKKFAKKFAK [JC15-18N]	–	–	3	2	3	3	–	–	–	–	10.00	levels of activity higher than the control; also recorded: cannot exert an anti-angiogenic effect	2.75	–	–	–	–
–	IVRRADRAAVPIVNLKDELL [C-1]	–	–	2	2	3	1	2	1	–	–	−26.67	far fewer cellular associations; also recorded: possess anti-angiogenic activity	1.83	–	–	–	–
–	KKFKKFAKKFAKFAF [JC15-15C]	–	–	2	3	2	3	2	3	3	4	10.00	levels of activity higher than the control; also recorded: cannot exert an anti-angiogenic effect	2.75	++++	–	–	–
–	LDLQAPLYKKIIKKLLES [PF-2]	–	–	2	3	2	3	–	–	–	–	0.00	–	2.50	–	–	–	–
–	MFGNGKGYRGKRATTVTGTP [PL-2]	–	–	2	3	2	3	2	3	2	–	−2.86	–	2.43	–	–	–	–
–	PTAQLIATLKNGRKI [PF-1]	–	–	2	3	2	3	–	–	–	–	0.00	–	2.50	–	–	–	–
–	QAWDSQSPHAHGYIPSKFPNKNLKKNY [PL-1]	–	–	2	3	2	3	2	3	2	3	0.00	–	2.50	–	–	–	–
–	vascular endothelial growth factor [VEGF, reference compound]	–	–	–	–	–	–	–	–	–	–	–	–	–	–	0.69	0.78	0.77
